Assays:
Assay type in all cases: in vivo
[1] = system: transplanted Oryza sativa; assay: Test Example 1: effect on crop, application before weed generation in submerged conditions; conditions: Application herbicide amount 320 g/ha; Seventeenth Table
Method in brief: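 Rating, on a six-step scale from almost no effect (0) to almost completely withered (5), was made three weeks after pre-emergence treatment. Treatment was surface application to flooded pots at g/ha rates, with plants kept at 25° C. to 30° C.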

Galium spurium = assay: Test Example 4: herbicidal effect by application to foliage (diluvial soil, plastic box); conditions: 320 g/ha; for herbicidal effect, Q (Galium spurium): application to foliage
Method in brief: (§1)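 Emulsion-formulated compound, diluted to a predetermined g/ha dose, applied by small sprayer to leaves and stems of 14-day-old seedlings grown in sterilized diluvial soil. Effect rated on 0–5 herbicidal-ratio scale three weeks on.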

[2] = system: directly sowed Oryza sativa; assay: Test Example 3: effect on crop by application to foliage (Wagner pot, water depth 0.1-0.5 cm); conditions: Nineteenth Table; application to foliage; application herbicide amount 320 g/ha
Method in brief: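 Post-emergence foliar application at a stated g/ha rate to plants grown 14 days from seed in alluvial soil, greenhouse 25–30 °C. Visual score after 3 weeks: 0 (≤5% effect) through 5 (≥90%).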

Triticum aestivum = assay: Test Example 4: effect on crop by application to foliage (diluvial soil, plastic box); conditions: 320 g/ha; for e (Triticum aestivum) effect on crop grade: foliage application; for effect on crop, e (Triticum aestivum): application to foliage
Method in brief: as §1

[3] = system: Beta vulgaris ssp. vulgaris; assay: as above; conditions: 320 g/ha; for f (Beta vulgaris ssp. vulgaris) effect on crop grade: foliage application; for effect on crop, f (Beta vulgaris ssp. vulgaris): application to foliage
Method in brief: as §1

[4] = system: directly sowed Oryza sativa; assay: as above; conditions: 320 g/ha; for d (directly sowed Oryza sativa) effect on crop grade: foliage application; for effect on crop, d (directly sowed Oryza sativa): application to foliage
Method in brief: as §1

Brassica campestris L. = assay: as above; conditions: 320 g/ha; for g (Brassica campestris L.) effect on crop grade: foliage application; for effect on crop, g (Brassica campestris L.): application to foliage
Method in brief: as §1

Zea mays = assay: as above; conditions: foliage application, 320 g/ha
Method in brief: as §1

Glycine max = assay: as above; conditions: 320 g/ha; for c (Glycine max) effect on crop grade: foliage application; for effect on crop, c (Glycine max): application to foliage
Method in brief: as §1

| SMILES | a: transplanted Oryza sativa (effect on crop grade) [1] | Q (Galium spurium) herbicidal effect grade (Galium spurium; foliage application) | b (effect on crop grade) [2] | e (Triticum aestivum) effect on crop grade (Triticum aestivum) | f (Beta vulgaris ssp. vulgaris) effect on crop grade [3] | d (directly sowed Oryza sativa) effect on crop grade [4] | g (Brassica campestris L.) effect on crop grade (Brassica campestris L.) | b (Zea mays) effect on crop grade (Zea mays) | c (Glycine max) effect on crop grade (Glycine max) | herbicidal effect, Q (Galium spurium) (Galium spurium) | effect on crop, e (Triticum aestivum) (Triticum aestivum) | effect on crop, f (Beta vulgaris ssp. vulgaris) [3] | effect on crop, d (directly sowed Oryza sativa) [4] | effect on crop, g (Brassica campestris L.) (Brassica campestris L.) | effect on crop, c (Glycine max) (Glycine max) |
| --- | --- | --- | --- | --- | --- | --- | --- | --- | --- | --- | --- | --- | --- | --- | --- |
| CC(c1nnc2c(C(=O)Nc3nnnn3C)ccc(C(F)(F)F)n12)[S+](C)[O-] (stereo not drawn) [2-053] | 5 (Herbicidal ratio of 90% or more (almost completely withered)) | 5 (Herbicidal ratio of 90% or more (almost completely withered)) | 5 (Herbicidal ratio of 90% or more (almost completely withered)) | 5 (Herbicidal ratio of 90% or more (almost completely withered)) | 5 (Herbicidal ratio of 90% or more (almost completely withered)) | 5 (Herbicidal ratio of 90% or more (almost completely withered)) | 5 (Herbicidal ratio of 90% or more (almost completely withered)) | 5 (Herbicidal ratio of 90% or more (almost completely withered)) | 4 (Herbicidal ratio of 70% or more and less than 90%) | – | – | – | – | – | – |
| Cn1nnnc1NC(=O)c1ccc(C(F)(F)F)n2c(NCC(F)(F)F)nnc12 [2-081] | 3 (Herbicidal ratio of 40% or more and less than 70%) | – | 4 (Herbicidal ratio of 70% or more and less than 90%) | – | – | – | – | – | – | 3 (Herbicidal ratio of 40% or more and less than 70%) | 2 (Herbicidal ratio of 20% or more and less than 40%) | 5 (Herbicidal ratio of 90% or more (almost completely withered)) | 3 (Herbicidal ratio of 40% or more and less than 70%) | 4 (Herbicidal ratio of 70% or more and less than 90%) | 0 (Herbicidal ratio of 5% or less (almost no effect)) |
| CCN(CC)c1nnc2c(C(=O)Nc3nnnn3C)ccc(C(F)(F)F)n12 [2-089] | 4 (Herbicidal ratio of 70% or more and less than 90%) | – | 2 (Herbicidal ratio of 20% or more and less than 40%) | – | – | – | – | – | – | 3 (Herbicidal ratio of 40% or more and less than 70%) | 0 (Herbicidal ratio of 5% or less (almost no effect)) | 5 (Herbicidal ratio of 90% or more (almost completely withered)) | 4 (Herbicidal ratio of 70% or more and less than 90%) | 4 (Herbicidal ratio of 70% or more and less than 90%) | 0 (Herbicidal ratio of 5% or less (almost no effect)) |
| Cn1nnnc1NC(=O)c1ccc(C(F)(F)F)n2c(SCC(F)(F)F)nnc12 [2-087] | 3 (Herbicidal ratio of 40% or more and less than 70%) | – | 3 (Herbicidal ratio of 40% or more and less than 70%) | – | – | – | – | – | – | 3 (Herbicidal ratio of 40% or more and less than 70%) | 2 (Herbicidal ratio of 20% or more and less than 40%) | 5 (Herbicidal ratio of 90% or more (almost completely withered)) | 3 (Herbicidal ratio of 40% or more and less than 70%) | 3 (Herbicidal ratio of 40% or more and less than 70%) | 0 (Herbicidal ratio of 5% or less (almost no effect)) |
| CC(C)N(C)c1nnc2c(C(=O)Nc3nnnn3C)ccc(C(F)(F)F)n12 [2-082] | 5 (Herbicidal ratio of 90% or more (almost completely withered)) | – | 5 (Herbicidal ratio of 90% or more (almost completely withered)) | – | – | – | – | – | – | 4 (Herbicidal ratio of 70% or more and less than 90%) | 4 (Herbicidal ratio of 70% or more and less than 90%) | 5 (Herbicidal ratio of 90% or more (almost completely withered)) | 5 (Herbicidal ratio of 90% or more (almost completely withered)) | 5 (Herbicidal ratio of 90% or more (almost completely withered)) | 1 (Herbicidal ratio of 5% or more and less than 20%) |
| Cn1nnnc1NC(=O)c1ccc(C(F)(F)F)n2c(SCC3CC3)nnc12 [2-084] | 4 (Herbicidal ratio of 70% or more and less than 90%) | – | 5 (Herbicidal ratio of 90% or more (almost completely withered)) | – | – | – | – | – | – | 4 (Herbicidal ratio of 70% or more and less than 90%) | 3 (Herbicidal ratio of 40% or more and less than 70%) | 5 (Herbicidal ratio of 90% or more (almost completely withered)) | 3 (Herbicidal ratio of 40% or more and less than 70%) | 3 (Herbicidal ratio of 40% or more and less than 70%) | 1 (Herbicidal ratio of 5% or more and less than 20%) |
| CN(c1nnc2c(C(=O)Nc3nnnn3C)ccc(C(F)(F)F)n12)C1CCCCC1 [2-083] | 2 (Herbicidal ratio of 20% or more and less than 40%) | – | 0 (Herbicidal ratio of 5% or less (almost no effect)) | – | – | – | – | – | – | 3 (Herbicidal ratio of 40% or more and less than 70%) | 0 (Herbicidal ratio of 5% or less (almost no effect)) | 5 (Herbicidal ratio of 90% or more (almost completely withered)) | 4 (Herbicidal ratio of 70% or more and less than 90%) | 1 (Herbicidal ratio of 5% or more and less than 20%) | 0 (Herbicidal ratio of 5% or less (almost no effect)) |
| Cn1nnnc1NC(=O)c1ccc(C(F)(F)F)n2c(SCC#N)nnc12 [2-086] | 0 (Herbicidal ratio of 5% or less (almost no effect)) | – | 3 (Herbicidal ratio of 40% or more and less than 70%) | – | – | – | – | – | – | 4 (Herbicidal ratio of 70% or more and less than 90%) | 2 (Herbicidal ratio of 20% or more and less than 40%) | 5 (Herbicidal ratio of 90% or more (almost completely withered)) | 4 (Herbicidal ratio of 70% or more and less than 90%) | 3 (Herbicidal ratio of 40% or more and less than 70%) | 0 (Herbicidal ratio of 5% or less (almost no effect)) |
| CSC(C)c1nnc2c(C(=O)Nc3nnnn3C)ccc(C(F)(F)F)n12 (stereo not drawn) [2-052] | 5 (Herbicidal ratio of 90% or more (almost completely withered)) | – | 5 (Herbicidal ratio of 90% or more (almost completely withered)) | 5 (Herbicidal ratio of 90% or more (almost completely withered)) | 5 (Herbicidal ratio of 90% or more (almost completely withered)) | 5 (Herbicidal ratio of 90% or more (almost completely withered)) | 5 (Herbicidal ratio of 90% or more (almost completely withered)) | 5 (Herbicidal ratio of 90% or more (almost completely withered)) | 4 (Herbicidal ratio of 70% or more and less than 90%) | – | – | – | – | – | – |
| Cn1nnnc1NC(=O)c1ccc(C(F)(F)F)n2c(SCC3CCCO3)nnc12 (stereo not drawn) [2-085] | 1 (Herbicidal ratio of 5% or more and less than 20%) | – | 4 (Herbicidal ratio of 70% or more and less than 90%) | – | – | – | – | – | – | 4 (Herbicidal ratio of 70% or more and less than 90%) | 3 (Herbicidal ratio of 40% or more and less than 70%) | 5 (Herbicidal ratio of 90% or more (almost completely withered)) | 5 (Herbicidal ratio of 90% or more (almost completely withered)) | 4 (Herbicidal ratio of 70% or more and less than 90%) | 2 (Herbicidal ratio of 20% or more and less than 40%) |
